According to patent US11980607B2, “Methods of treating malignant lymphoproliferative disorders” (Actuate Therapeutics Inc., priority 2018, dated 2024):

Tests used:
SUDHL-4 cell line = assay: Dose response of combinations (MTS viability, day 3); format: cell-based; settings: SUDHL-4, combined with 0.5 μM 9-ING-41, day 3 MTS
Procedure: (§1) FIGS. 2A-2O show the viability of lymphoma cells with chemotherapy agents in combination with 9-ING-41. 10,000 cells (FIGS. 1A, F, K: Daudi; FIGS. 1B, G, L: SUDHL-4; FIGS. 1C, H, M: KPUM-UH1; FIGS. 1D, I, N: Karpas 422; E, J, O: TMD8) were plated per well of a 96-well plate and treated with a dose response series of both 9-ING-41 (0-0.5 μM) and Venetoclax (0-5,000 nM) (FIGS. 1A-E) or BAY-1143572 (0-50 μM) (FIGS. 1F-J) or Idelalisib (0-50 μM) (FIGS. 1K-O) in triplicate. Viability after 3 days was analyzed using the MTS assay. Briefly, 20 μl of MTS reagent was added to cells and incubated for 2 hours and, the absorbance at 490 nm was read using a Biotek plate reader. Relative absorbance is calculated after setting the average absorbance of the no-treatment control as 1. Absorbance at OD=490 nm increases proportionally to cell density.
(§2) Daudi, SUDHL-4, KPUM-UH1, Karpas 422, or TMD8 cells were treated simultaneously with a series of concentrations of 9-ING-41 (0 μM, 0.05 μM, 0.5 μM) and either Venetoclax (0 nM, 0.5 nM, 5 nM, 50 nM, 500 nM, 5000 nM), BAY-1143572 (0 μM, 0.005 μM, 0.05 μM, 0.5 μM, 5 μM, 50 μM), or Idelalisib (0 μM, 0.005 μM, 0.05 μM, 0.5 μM, 5 μM, 50 μM). Viability at day 3 using an MTS assay was determined as described above. The background absorbance was subtracted from the A490 of the samples and the A490 of the vehicle/no-treatment control was set to 1, and the relative A490s of the rest of the samples were calculated. The IC50 was calculated as the concentration of the drug at which A490 reached 0.5. Additive effects were calculated as a fold change in the IC50 of a novel agent when combined with 0.5 μM of 9-ING-41.

KPUMUH1 cell line = assay: as above; format: cell-based; settings: KPUMUH1, combined with 0.5 μM 9-ING-41, day 3 MTS
Procedure: as §1, §2

Row | SMILES | Reduction in the IC50 value on combination with 9-ING-41 (SUDHL-4 cell line) [fold] | Reduction in the IC50 value on combination with 9-ING-41 (KPUMUH1 cell line) [fold]
1 | COc1cc(F)ccc1-c1ncnc(Nc2cccc(C[S@](C)(=N)=O)c2)n1 [BAY-1143572] | 8 | 
2 | CC1(C)CCC(CN2CCN(c3ccc(C(=O)NS(=O)(=O)c4ccc(NCC5CCOCC5)c([N+](=O)[O-])c4)c(Oc4cnc5[nH]ccc5c4)c3)CC2)=C(c2ccc(Cl)cc2)C1 [Venetoclax] | 8 | 2
